The values below come from US20240174634A1, “Aldehyde Dehydrogenase Inhibitors and Their Therapeutic Use” (priority 2020, published 2024).

A value given as a limit tells only on which side of the number the result lay.

The target in assay [1] is T1, ALDH1A3 (Homo sapiens, UniProt P47895).
T1 sequence (P47895 1-512): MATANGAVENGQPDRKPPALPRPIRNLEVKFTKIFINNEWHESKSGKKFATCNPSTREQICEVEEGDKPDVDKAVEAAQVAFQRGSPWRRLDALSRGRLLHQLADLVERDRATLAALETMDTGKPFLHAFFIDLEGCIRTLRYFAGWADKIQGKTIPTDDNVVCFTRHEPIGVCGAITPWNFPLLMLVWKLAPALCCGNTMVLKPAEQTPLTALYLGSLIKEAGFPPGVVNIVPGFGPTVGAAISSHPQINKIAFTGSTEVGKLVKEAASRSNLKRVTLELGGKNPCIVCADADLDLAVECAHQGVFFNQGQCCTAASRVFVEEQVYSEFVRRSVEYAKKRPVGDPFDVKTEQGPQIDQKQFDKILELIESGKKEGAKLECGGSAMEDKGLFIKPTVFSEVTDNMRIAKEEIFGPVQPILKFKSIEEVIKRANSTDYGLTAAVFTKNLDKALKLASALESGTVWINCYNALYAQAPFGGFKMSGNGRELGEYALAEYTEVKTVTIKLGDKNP
Nature of the assay: Primary biochemical assay, NAD(P)H-Glo Detection System. Further details: His-tag; made in house; host or cells: E. coli Rosetta (DE3). The following applies: 30 min pre-incubation, propionaldehyde and NAD at Km. The text has this: (§1) Cloning: Open reading frames corresponding to the protein coding sequences of full length human ALDH1A1 (Uniprot ID P00352), ALDH1A2 (094788) and ALDH1A3 (P47895) were polymerase chain reaction (PCR) amplified from human cDNA and inserted into the multi-cloning sites of the commercially available (Novagen) E. coli expression vectors pET47b (ALDH1A1, EcoRI restriction site; ALDH1A2, BamHI and EcoRI sites) or pET28a (ALDH1A3, NdeI and BamHI sites), using standard molecular genetic techniques. Recombinant DNA products were sequence verified prior to use in expression studies.
(§2) Expression: Expression constructs were transformed into the E. coli strain Rosetta (DE3) (Merck) and individual colonies used to inoculate 10 mL lysogen broth (LB) medium supplemented with kanamycin and chloramphenicol at 50 μg/mL and 34 μg/mL, respectively. Cultures were grown to saturation overnight at 37° C., prior to being used to sub-inoculate fresh 1 L LB medium cultures (plus antibiotics, as before). 1 L cultures were grown at 37° C., 200 rpm, throughout the day until the optical density at 600 nm (OD600) reached ˜0.8, at which point growth temperature was reduced to 18° C. and 1 mM isopropyl β-d-1-thiogalacto pyranoside (IPTG) added to induce protein expression.
(§3) Cultures were left overnight (at least 16 h) under these conditions and the following day harvested by centrifugation (4000 G, 10 minutes). Culture supernatant was discarded and cell pellets stored at −80° C. until further processing.
(§4) Purification: Cell pellets were thawed on ice, re-suspended in Ni Affinity Buffer A (20 mM HEPES pH 7.5, 300 mM NaCl, 20 mM imidazole, 1 mM tris(2-carboxyethyl)phosphine (TCEP)) with protease inhibitors (cOmplete Ultra protease inhibitor, Roche), and lysed by sonication. Lysates were clarified by centrifugation at 18,000 G, 4° C., for 40 minutes, and loaded directly onto a pre-equilibrated (Buffer A) 5 mL HisTrap Fast Flow column (GE Healthcare) by way of an AKTA Fast Protein Liquid Chromatography (FPLC) system. The column was sequentially treated with 6 column volumes (CV) 100% Buffer A, 8 CV of 90% Buffer A:10% Buffer B (20 mM 4-(2-hydroxyethyl)-1-piperazineethanesulfonic acid (HEPES) pH 7.5, 300 mM NaCl, 500 mM imidazole, 1 mM TCEP) and finally a linear gradient from 10-70% Buffer B over 8 CV to elute recombinant His-tagged protein. Relevant fractions (as measured by 280 nm absorbance) collected during elution were pooled and subjected to further purification by size exclusion chromatography (Superdex 200 26/600, GE Healthcare, running buffer 20 mM 2-(carbamoylmethylamino)ethanesulfonic acid (ACES) pH 7.5, 1 mM TCEP). Relevant fractions from this step were pooled, aliquoted, and stored at −80° C. until required for compound profiling assays.
(§5) Materials: ALDH2 was purchased from Abnova. Tris(hydroxymethyl)aminomethane (Tris) was purchased from MP Biomedicals. TCEP, ethylenediaminetetraacetic acid (EDTA), propionaldehyde, DMSO and Tween-20 were purchased from Sigma. Nicotinamide adenine dinucleotide (NAD) was obtained from Abcam. The NAD(P)H-Glo™ Detection System was purchased from Promega. White, non-binding surface, 384 well plates were supplied by Corning (#3574).
(§6) Method: Inhibition of ALDH1A3 was assessed using the NAD(P)H-Glo™ Detection System (Cat. No. G9062) from Promega. This assay detects the production of NADH from NAD by ALDH1A3 via the coupled enzymatic conversion of a proluciferin reductase substrate to generate a luminescent signal. Inhibition of ALDH1A3 by small molecule inhibitors will result in reduction or abrogation of luminescence signal increase above background. Inhibition of ALDH1A1, ALDH1A2 and ALDH2 (selectivity assays) were assessed using the same assay.
(§7) Compounds were dosed into Corning 384 well assay plates using an Echo acoustic dispenser to give 10 point curves in a 3-fold dilution series. Compounds were dispensed from a 20 mM DMSO stock and initially screened at a top concentration of 20 μM (ALDH1A3) or 250 μM (ALDH1A1, ALDH1A2 & ALDH2). […]

In assay [2] the target is T2, ALDH1A1 (Homo sapiens, UniProt P00352).
T2 construct: His-tag; made in house; host or cells: E. coli Rosetta (DE3)
T2 sequence (P00352 1-501): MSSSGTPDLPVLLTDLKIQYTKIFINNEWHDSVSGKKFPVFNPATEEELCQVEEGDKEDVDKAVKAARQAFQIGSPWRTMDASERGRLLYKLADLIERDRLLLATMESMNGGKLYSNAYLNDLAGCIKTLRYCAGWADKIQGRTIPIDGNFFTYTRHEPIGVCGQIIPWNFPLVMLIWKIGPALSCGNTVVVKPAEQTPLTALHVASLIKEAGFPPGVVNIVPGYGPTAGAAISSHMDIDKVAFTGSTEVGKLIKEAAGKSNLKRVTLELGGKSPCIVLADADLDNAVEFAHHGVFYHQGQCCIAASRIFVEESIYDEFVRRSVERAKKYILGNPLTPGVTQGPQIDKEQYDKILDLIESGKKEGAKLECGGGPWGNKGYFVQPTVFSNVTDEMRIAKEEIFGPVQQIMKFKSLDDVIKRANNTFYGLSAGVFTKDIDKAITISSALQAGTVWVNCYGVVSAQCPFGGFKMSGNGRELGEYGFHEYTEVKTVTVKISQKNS
Nature of the assay: Selectivity biochemical assay, NAD(P)H-Glo Detection System.
Excerpt: as §1, §2, §3, §4, §5, §6, §7

The term IC50 denotes the concentration that inhibits the measured activity by half. Consider `Cc1nn(C)cc1C1CCCN1CCOc1ccc2c(c1)CCC(=O)N2` (stereo not shown) [ALDHI-2015, 6-[2-[2-(1,3-dimethylpyrazol-4-yl)pyrrolidin-1-yl]ethoxy]-3,4-dihydro-1H-quinolin-2-one], for which the IC50 was 1 to 10 µM in assay [1] and at least 100 µM in assay [2].

With `Cc1onc(-c2cccc(F)c2)c1C(=O)Nc1ccc2c(c1)CCC(=O)N2` [ALDHI-1009, 3-(3-fluorophenyl)-5-methyl-N-(2-oxo-3,4-dihydro-1H-quinolin-6-yl)isoxazole-4-carboxamide], the IC50 in assay [1] is 1 to 10 µM; in assay [2] it was at least 100 µM.

As for `Cn1cccc1C1CCCN1CCOc1ccc2c(c1)CCC(=O)N2` (stereo not shown) [ALDHI-2017, 6-[2-[2-(1-methylpyrrol-2-yl)pyrrolidin-1-yl]ethoxy]-3,4-dihydro-1H-quinolin-2-one], the IC50 in assay [1] is 1 to 10 µM; in assay [2] it was at least 100 µM.

On to `CC(C)C1Oc2cc(OCCN3CCCC3c3cccc(F)c3)ccc2NC1=O` (stereo not shown) [ALDHI-2049, 7-[2-[2-(3-fluorophenyl)pyrrolidin-1-yl]ethoxy]-2-isopropyl-4H-1,4-benzoxazin-3-one], for which the 50% inhibitory concentration (IC50) was 1 to 10 µM in assay [1] and at least 100 µM in assay [2].

In the case of `O=C1COc2cc(OCCN3CCCC3c3ccccn3)ccc2N1` (stereo not shown) [ALDHI-2025, 7-[2-[2-(2-pyridyl)pyrrolidin-1-yl]ethoxy]-4H-1,4-benzoxazin-3-one], the IC50 in assay [1] was 1 to 10 µM; in assay [2] it was at least 100 µM.

Take `CS(=O)(=O)N1CCN(CCOc2ccc3c(c2)CCC(=O)N3)C(c2ccccc2)C1` (stereo not shown) [ALDHI-2046, 6-[2-(4-methylsulfonyl-2-phenyl-piperazin-1-yl)ethoxy]-3,4-dihydro-1H-quinolin-2-one]: the results for the IC50 in assay [1] and in assay [2] were 1 to 10 µM and 10 to 100 µM, respectively.

With `Cn1cc(C2CCCN2CCOc2ccc3c(c2)OCC(=O)N3)cn1` (stereo not shown) [ALDHI-2024, 7-[2-[2-(1-methylpyrazol-4-yl)pyrrolidin-1-yl]ethoxy]-4H-1,4-benzoxazin-3-one], the results for the IC50 in assay [1] and in assay [2] were 1 to 10 µM and at least 100 µM, respectively.

For the molecule `CCCC1Oc2cc(OCCN3CCCC3c3cccc(F)c3)ccc2NC1=O` (stereo not shown) [ALDHI-2047, 7-[2-[2-(3-fluorophenyl)pyrrolidin-1-yl]ethoxy]-2-propyl-4H-1,4-benzoxazin-3-one], the results for the IC50 in assay [1] and in assay [2] were 1 to 10 µM and at least 100 µM, respectively.

On to `Cc1nc(-c2cccc(F)c2)c(C(=O)Nc2ccc3c(c2)CCC(=O)N3)s1` [ALDHI-1026, 4-(3-fluorophenyl)-2-methyl-N-(2-oxo-3,4-dihydro-1H-quinolin-6-yl)thiazole-5-carboxamide], for which the IC50 in assay [1] is under 0.1 µM; in assay [2], at least 100 µM.

As for `O=C1CCc2cc(NC(=O)c3scnc3-c3cccc(C(F)(F)F)c3)ccc2N1` [ALDHI-1015, N-(2-oxo-3,4-dihydro-1H-quinolin-6-yl)-4-[3-(trifluoromethyl)phenyl]thiazole-5-carboxamide], the IC50 in assay [1] was 1 to 10 µM; in assay [2] it was at least 100 µM.

In the case of `CN(CCOc1ccc2c(c1)CCC(=O)N2)Cc1ccncc1` [ALDHI-3014, 6-[2-[methyl(4-pyridylmethyl)amino]ethoxy]-3,4-dihydro-1H-quinolin-2-one], the values for the concentration for half-maximal inhibition (IC50) in assay [1] and in assay [2] were 1 to 10 µM and at least 100 µM, respectively.

On to `CN(CCOc1ccc2c(c1)CCC(=O)N2)Cc1ccccn1` [ALDHI-3012, 6-[2-[methyl(2-pyridylmethyl)amino]ethoxy]-3,4-dihydro-1H-quinolin-2-one], for which the IC50 in assay [1] is 1 to 10 µM; in assay [2], at least 100 µM.

With `O=C1CCc2cc(NC(=O)c3scnc3-c3cc(F)cc(F)c3)ccc2N1` [ALDHI-1024, 4-(3,5-difluorophenyl)-N-(2-oxo-3,4-dihydro-1H-quinolin-6-yl)thiazole-5-carboxamide], the IC50 is under 0.1 µM in assay [1] and at least 100 µM in assay [2].

`Cn1cc(CN(CCO)CCOc2ccc3c(c2)CCC(=O)N3)cn1` [ALDHI-3011, 6-[2-[2-hydroxyethyl-[(1-methylpyrazol-4-yl)methyl]amino]ethoxy]-3,4-dihydro-1H-quinolin-2-one]: the IC50 in assay [1] is 1 to 10 µM; in assay [2], 10 to 100 µM.
